Reference: patent publication US20240067631A1, “PYRAZOLE DERIVATIVES USEFUL AS NAMPT MODULATORS” (Cytokinetics, Inc., priority 2020, published 2024)

Molecular target: human NAMPT (Homo sapiens (Human), UniProt P43490)
Test: Human recombinant enzyme assay (NMN fluorescence biochemical assay)
Settings: 6 nM human NAMPT, 60 min; for AC1.4 Human: concentration of compound that generates 40% higher activity over basal; for EC50: concentration that gives half-maximal activation
Procedure: Compounds described herein were assayed for their ability to stimulate the synthesis of nicotinamide mononucleotide (NMN) by the enzyme NAMPT. The human recombinant enzyme assay measures the activation of the enzyme activity by compounds using recombinant enzyme and substrates in a buffered cell-free system. The assay conditions closely mimic cellular environments. Dose responses were measured using an assay to detect the formation of nicotinamide mono-nucleotide. All experiments were performed in the 384-well format. Generally, 0.5 μL of DMSO containing varying concentrations of the test compound was mixed with 10 μL of the enzyme reagent solution. Enzyme reactions were initiated with the addition of 10 μL of a solution containing the substrates. The final assay conditions were as follows: 6 nM human NAMPT, 2.5 mM ATP, […] in 50 mM HEPES, pH 7.2, 1 mM DTT, 1 mM CHAPS 50 mM NaCl, 100 mM MgCl2. Following an incubation of 60 min at ambient temperature, 10 μL of 20% acetophenone in DMSO was added, followed by 10 μL of 2 M KOH and 40 μL of formic acid. The plates were read for fluorescence (Excitation/Emission=355 nm/460 nm) using an EnVision plate reader after 40 mins of incubation at ambient temperature. The potency measurements for compounds, are quantified and represented as AC1.4 (the concentration of compounds that generates 40% higher activity over basal) and EC50 (concentration of the compound that gives half-maximal activation).

Chain of human NAMPT (P43490 whole entry): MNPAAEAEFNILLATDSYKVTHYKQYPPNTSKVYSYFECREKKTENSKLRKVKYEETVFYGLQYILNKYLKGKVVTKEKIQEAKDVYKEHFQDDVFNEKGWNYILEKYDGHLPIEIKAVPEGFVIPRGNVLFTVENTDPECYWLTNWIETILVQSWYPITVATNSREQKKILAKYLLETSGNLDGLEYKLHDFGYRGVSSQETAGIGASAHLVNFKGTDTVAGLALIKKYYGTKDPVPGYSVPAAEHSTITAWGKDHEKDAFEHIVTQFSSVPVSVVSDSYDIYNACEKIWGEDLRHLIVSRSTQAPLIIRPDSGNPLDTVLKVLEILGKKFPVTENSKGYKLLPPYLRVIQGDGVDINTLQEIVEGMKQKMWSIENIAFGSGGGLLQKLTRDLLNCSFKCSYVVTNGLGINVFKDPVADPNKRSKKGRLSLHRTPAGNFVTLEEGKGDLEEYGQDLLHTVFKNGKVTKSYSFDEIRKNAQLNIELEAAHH

| SMILES | AC1.4 Human | EC50 |
| --- | --- | --- |
| COc1cccc(C(C)NC(=O)c2nc(C)c(C)c(NCCc3cn[nH]c3)n2)n1 (stereo not shown) [Compound 68, 4-((2-(1H-pyrazol-4-yl)ethyl)amino)-N-(1-(6-methoxypyridin-2-yl)ethyl)-5,6-dimethylpyrimidine-2-carboxamide] | 0.563 µM | 1.64 µM |
| Cc1nc(C(=O)NC(C)(C)c2cccc(F)c2)nc(NCCc2cn[nH]c2)c1C [Compound 11, 4-((2-(1H-pyrazol-4-yl)ethyl)amino)-N-(2-(3-fluorophenyl)propan-2-yl)-5,6-dimethylpyrimidine-2-carboxamide] | 0.0465 µM | 0.282 µM |
| Cc1nc(C(=O)NCC(C)(O)c2ccccc2)nc(NCCc2cn[nH]c2)c1C (stereo not shown) [Compound 104, 4-((2-(1H-pyrazol-4-yl)ethyl)amino)-N-(2-hydroxy-2-phenylpropyl)-5,6-dimethylpyrimidine-2-carboxamide] | 1.6495 µM | 11.3 µM |
| Cc1cccc([C@H]2CCCN2C(=O)c2nc(C)c(C)c(NCCc3cn[nH]c3)n2)n1 [Compound 131, (R)-(4-((2-(1H-pyrazol-4-yl)ethyl)amino)-5,6-dimethylpyrimidin-2-yl)(2-(6-methylpyridin-2-yl)pyrrolidin-1-yl)methanone] | 3.487 µM | 10.8 µM |
| Cc1nc(C(=O)NC(c2ccccc2)C(F)(F)F)nc(NCCc2cn[nH]c2)c1C (stereo not shown) [Compound 33, 4-((2-(1H-pyrazol-4-yl)ethyl)amino)-5,6-dimethyl-N-(2,2,2-trifluoro-1-phenylethyl)pyrimidine-2-carboxamide] | 0.2615 µM | 1.38 µM |
| Cc1nc(C(=O)N2CCN(C)CC2c2ccccc2)nc(NCCc2cn[nH]c2)c1C (stereo not shown) [Compound 44, (4-((2-(1H-pyrazol-4-yl)ethyl)amino)-5,6-dimethylpyrimidin-2-yl)(4-methyl-2-phenylpiperazin-1-yl)methanone] | 0.275 µM | 1.84 µM |
| C[C@@H](NC(=O)c1nc2c(c(NCCc3cn[nH]c3)n1)CCC2)c1cccc(F)n1 [Compound 146, (R)-4-((2-(1H-pyrazol-4-yl)ethyl)amino)-N-(1-(6-fluoropyridin-2-yl)ethyl)-6,7-dihydro-5H-cyclopenta[d] pyrimidine-2-carboxamide] | 2.7 µM | – |
| Cc1nc(C(=O)Nc2ccccc2)nc(NCCc2cn[nH]c2)c1C [Compound 140, 4-((2-(1H-pyrazol-4-yl)ethyl)amino)-5,6-dimethyl-N-phenylpyrimidine-2-carboxamide] | 4.0885 µM | 18.4 µM |
| Cc1nc(C(=O)N2CC(O)(Cc3ccccc3)C2)nc(NCCc2cn[nH]c2)c1C [Compound 60] | 0.4085 µM | 3.75 µM |
| Cc1nc(C(=O)N2CCOCC2c2ccc(F)cc2)nc(NCCc2cn[nH]c2)c1C (stereo not shown) [Compound 67, (4-((2-(1H-pyrazol-4-yl)ethyl)amino)-5,6-dimethylpyrimidin-2-yl)(3-(4-fluorophenyl)morpholino)methanone] | 0.505 µM | 3.86 µM |
| Cc1nc(C(=O)NC(c2ccccc2)c2nccn2C)nc(NCCc2cn[nH]c2)c1C (stereo not shown) [Compound 40, 4-((2-(1H-pyrazol-4-yl)ethyl)amino)-5,6-dimethyl-N-((1-methyl-1H-imidazol-2-yl)(phenyl)methyl)pyrimidine-2-carboxamide] | 0.214 µM | 1.27 µM |
| COc1cccc([C@@H](C)NC(=O)c2nc(C)c(C)c(NCCc3cn[nH]c3)n2)n1 [Compound 43, (R)-4-((2-(1H-pyrazol-4-yl)ethyl)amino)-N-(1-(6-methoxypyridin-2-yl)ethyl)-5,6-dimethylpyrimidine-2-carboxamide] | 0.273 µM | 0.827 µM |
| COc1cccnc1[C@@H](C)NC(=O)c1nc(C)c(C)c(NCCc2cn[nH]c2)n1 [Compound 124, (R)-4-((2-(1H-pyrazol-4-yl)ethyl)amino)-N-(1-(3-methoxypyridin-2-yl)ethyl)-5,6-dimethylpyrimidine-2-carboxamide] | 2.6905 µM | 12 µM |
| Cc1nc(C(=O)N2CCOC[C@@H]2Cc2ccccc2)nc(NCCc2cn[nH]c2)c1C [Compound 72, (S)-(4-((2-(1H-pyrazol-4-yl)ethyl)amino)-5,6-dimethylpyrimidin-2-yl)(3-benzylmorpholino)methanone] | 0.625 µM | 3.53 µM |
| Cc1nc(C(=O)NCc2n[nH]c3ccccc23)nc(NCCc2cn[nH]c2)c1C [Compound 105, N-((1H-indazol-3-yl)methyl)-4-((2-(1H-pyrazol-4-yl)ethyl)amino)-5,6-dimethylpyrimidine-2-carboxamide] | 1.669 µM | 2.52 µM |
| Cc1nc(C(=O)N[C@H](C)c2ccc(F)cn2)nc(NCCc2cn[nH]c2)c1C [Compound 118, (R)-4-((2-(1H-pyrazol-4-yl)ethyl)amino)-N-(1-(5-fluoropyridin-2-yl)ethyl)-5,6-dimethylpyrimidine-2-carboxamide] | 2.384 µM | 11.8 µM |
| Cc1nc(C(=O)NC(C)(C)c2cccnc2)nc(NCCc2cn[nH]c2)c1C [Compound 121, 4-((2-(1H-pyrazol-4-yl)ethyl)amino)-5,6-dimethyl-N-(2-(pyridin-3-yl)propan-2-yl)pyrimidine-2-carboxamide] | 2.5075 µM | 22.1 µM |
| Cc1nc(C(=O)NCc2ncccc2F)nc(NCCc2cn[nH]c2)c1C [Compound 120, 4-((2-(1H-pyrazol-4-yl)ethyl)amino)-N-((3-fluoropyridin-2-yl)methyl)-5,6-dimethylpyrimidine-2-carboxamide] | 2.443 µM | 15.2 µM |
| Cc1nc(C(=O)NC(C)c2cccc(Cl)n2)nc(NCCc2cn[nH]c2)c1C (stereo not shown) [Compound 36, 4-((2-(1H-pyrazol-4-yl)ethyl)amino)-N-(1-(6-chloropyridin-2-yl)ethyl)-5,6-dimethylpyrimidine-2-carboxamide] | 0.2015 µM | 0.882 µM |
| Cc1nc(C(=O)N2CCCC2Cc2ccccc2)nc(NCCc2cn[nH]c2)c1C (stereo not shown) [Compound 71, (4-((2-(1H-pyrazol-4-yl)ethyl)amino)-5,6-dimethylpyrimidin-2-yl)(2-benzylpyrrolidin-1-yl)methanone] | 0.5835 µM | 6.07 µM |
| Cc1nc(C(=O)N2CCC(c3ccccc3F)C2)nc(NCCc2cn[nH]c2)c1C (stereo not shown) [Compound 66, (4-((2-(1H-pyrazol-4-yl)ethyl)amino)-5,6-dimethylpyrimidin-2-yl)(3-(2-fluorophenyl)pyrrolidin-1-yl)methanone] | 4.5565 µM | 16.3 µM |
| Cc1nc(C(=O)NC(c2ccc(F)c(F)c2)c2nccn2C)nc(NCCc2cn[nH]c2)c1C (stereo not shown) [Compound 134, 4-((2-(1H-pyrazol-4-yl)ethyl)amino)-N-((3,4-difluorophenyl)(1-methyl-1H-imidazol-2-yl)methyl)-5,6-dimethylpyrimidine-2-carboxamide] | 3.578 µM | 26.2 µM |
| Cc1cccnc1[C@@H](C)NC(=O)c1nc(C)c(C)c(NCCc2cn[nH]c2)n1 [Compound 37, (R)-4-((2-(1H-pyrazol-4-yl)ethyl)amino)-5,6-dimethyl-N-(1-(3-methylpyridin-2-yl)ethyl)pyrimidine-2-carboxamide] | 0.2055 µM | 1.19 µM |
| Cc1nc(C(=O)NCc2cccc(F)n2)nc(NCCc2cn[nH]c2)c1C [Compound 55, 4-((2-(1H-pyrazol-4-yl)ethyl)amino)-N-((6-fluoropyridin-2-yl)methyl)-5,6-dimethylpyrimidine-2-carboxamide] | 0.375 µM | 4.68 µM |
| Cc1cc(NCCc2cn[nH]c2)nc(C(=O)N2CCC[C@@H]2c2cccc(F)c2)c1 [Compound 152] | 12.6 µM | – |
| Cc1nc(C(=O)NCc2ccncc2)nc(NCCc2cn[nH]c2)c1C [Compound 133, 4-((2-(1H-pyrazol-4-yl)ethyl)amino)-5,6-dimethyl-N-(pyridin-4-ylmethyl)pyrimidine-2-carboxamide] | 3.5315 µM | 28.9 µM |
| Cc1nc(C(=O)N2CC(F)(F)C2)nc(NCCc2cn[nH]c2)c1C [Compound 91, (4-((2-(1H-pyrazol-4-yl)ethyl)amino)-5,6-dimethylpyrimidin-2-yl)(3,3-difluoroazetidin-1-yl)methanone] | 0.9345 µM | 7.76 µM |
